Test results as given in patent US20220338504A1 (priority 2017, published 2022).
Read-outs that look alike come from different tables or passages of the source. Marks after values point to notes of the source that are not given here.

Tests used:
[1] = tested on: E. maxima and C. perfringens; type: in vivo, broilers (male Cobb×Cobb chicks); details: challenged, BMD 50.0 g/ton, encapsulated ground pepper 300 g/ton
[2] = tested on: E. maxima and C. perfringens; type: in vivo, broilers (male Cobb×Cobb chicks)
[3] = tested on: E. maxima and C. perfringens; type: in vivo, broilers (male Cobb×Cobb chicks); remark: listed apart in the source
[4] = tested on: E. maxima and C. perfringens; type: in vivo, broilers (male Cobb×Cobb chicks); remark: listed apart in the source
[5] = tested on: E. maxima and C. perfringens; type: in vivo, broilers (male Cobb×Cobb chicks); remark: listed apart in the source
[6] = tested on: Clostridium perfringens strain #6 (with coccidia / E. maxima); type: in vivo, broilers (male Ross×Ross chicks)
[7] = 0-21 d, challenged, BMD 50.0 g/ton, combination 0.30 lb/ton + 0.5 lb/ton + 3 × 10^5 cfu/g
[8] = 0-28 d, challenged, BMD 50.0 g/ton, combination 0.30 lb/ton + 0.5 lb/ton + 3 × 10^5 cfu/g
[9] = 14-21 d, challenged, BMD 50.0 g/ton, combination 0.30 lb/ton + 0.5 lb/ton + 3 × 10^5 cfu/g
[10] = 14-28 d, challenged, BMD 50.0 g/ton, combination 0.30 lb/ton + 0.5 lb/ton + 3 × 10^5 cfu/g
[11] = 0-21 d, challenged, BMD 50.0 g/ton, combination 4.0 lb/ton + 3 × 10^5 cfu/g
[12] = 0-28 d, challenged, BMD 50.0 g/ton, combination 4.0 lb/ton + 3 × 10^5 cfu/g
[13] = 14-21 d, challenged, BMD 50.0 g/ton, combination 4.0 lb/ton + 3 × 10^5 cfu/g
[14] = 14-28 d, challenged, BMD 50.0 g/ton, combination 4.0 lb/ton + 3 × 10^5 cfu/g
[15] = 0-21 d, challenged, BMD 50.0 g/ton, combination 0.3 lb/ton + 3 × 10^5 cfu/g
[16] = 0-28 d, challenged, BMD 50.0 g/ton, combination 0.3 lb/ton + 3 × 10^5 cfu/g
[17] = 14-21 d, challenged, BMD 50.0 g/ton, combination 0.3 lb/ton + 3 × 10^5 cfu/g
[18] = 14-28 d, challenged, BMD 50.0 g/ton, combination 0.3 lb/ton + 3 × 10^5 cfu/g
[19] = 0-21 d, challenged, BMD 50.0 g/ton, combination 0.5 lb/ton + 3 × 10^5 cfu/g
[20] = 0-28 d, challenged, BMD 50.0 g/ton, combination 0.5 lb/ton + 3 × 10^5 cfu/g
[21] = 14-21 d, challenged, BMD 50.0 g/ton, combination 0.5 lb/ton + 3 × 10^5 cfu/g
[22] = 14-28 d, challenged, BMD 50.0 g/ton, combination 0.5 lb/ton + 3 × 10^5 cfu/g

## bacitracin methylene disalycilate [BMD]
[1]; 0-21 d
  Body weight gain: 0.44 kg
  Feed Conversion: 1.79^ab
  Feed consumption: 0.79 kg
[1]; 0-28 d
  Body weight gain: 0.65 kg
  Feed Conversion: 1.88^b
  Feed consumption: 1.22 kg
[1]; 14-21 d
  Body weight gain: 0.16^b Kg
  Feed Conversion: 2.56^b
  Feed consumption: 0.41 kg
[1]; 14-28 d
  Body weight gain: 0.37^ab Kg
  Feed Conversion: 2.58^b
  Feed consumption: 0.95 kg
[1]; DOT 21, 0 to 3 score, 0 normal, 3 most severe
  Necrotic enteritis lesion score: 1.1^b
[1]
  Necrotic enteritis related mortality, %: 28.1^b %
[2]; [7]
  Body weight gain: 0.52^ab Kg
  Feed Conversion: 1.81^a
  Feed consumption: 0.94 kg
[2]; [8]
  Body weight gain: 0.77 kg
  Feed Conversion: 1.78^b
  Feed consumption: 1.37 kg
[2]; [9]
  Body weight gain: 0.28^b Kg
  Feed Conversion: 1.77^b
  Feed consumption: 0.49 kg
[2]; [10]
  Body weight gain: 0.53 kg
  Feed Conversion: 1.73^bc
  Feed consumption: 0.91 kg
[2]; DOT 21, 0 to 3 score, challenged, BMD 50.0 g/ton, combination 0.30 lb/ton + 0.5 lb/ton + 3 × 10^5 cfu/g
  Necrotic enteritis lesion score: 0.5^b
[2]; P<0.05
  Necrotic enteritis lesion scores compared to the challenged control birds: lower
  Overall FCR compared to the challenged no feed additive control: reduced
  necrotic enteritis related mortality compared to the challenged control birds: lower
[2]; challenged, BMD 50.0 g/ton, combination 0.30 lb/ton + 0.5 lb/ton + 3 × 10^5 cfu/g
  Necrotic enteritis related mortality, %: 2^b %
[2]; d 14-28, P<0.05
  FCR compared to the challenge control birds: decreased
[2]; in vivo
  Body weight gain compared to the challenged no feed additive control group: not impacted
  controlling C. perfringens disease challenge: effective
[3]; [11]
  Body weight gain: 0.57^a Kg
  Feed Conversion: 1.53^c
  Feed consumption: 0.87 kg
[3]; [12]
  Body weight gain: 0.81^a Kg
  Feed Conversion: 1.60^b
  Feed consumption: 1.30 kg
[3]; [13]
  Body weight gain: 0.32^ab Kg
  Feed Conversion: 1.72^b
  Feed consumption: 0.55 kg
[3]; [14]
  Body weight gain: 0.56^a Kg
  Feed Conversion: 1.75^b
  Feed consumption: 0.98^a Kg
[3]; DOT 21, 0 to 3 score, challenged, BMD 50.0 g/ton, combination 4.0 lb/ton + 3 × 10^5 cfu/g
  Necrotic enteritis lesion score: 0.79^b
[3]; P<0.05
  Necrotic enteritis lesion score compared to the challenged control birds: lower
[3]; challenged, BMD 50.0 g/ton, combination 4.0 lb/ton + 3 × 10^5 cfu/g
  Necrotic enteritis related mortality, %: 0.0^b %
[3]; d 0-28
  overall FCR compared to the challenged control birds: reduced
  overall body weight gain compared to the challenged control birds: increased
[3]; d 14-28, P<0.05
  FCR compared to the challenge control birds: decreased
  body weight gain compared to the challenge control birds: increased
[3]; in vivo
  controlling C. perfringens disease challenge: effective
  necrotic enteritis mortality compared to the challenged control group: lower
[4]; [15]
  Body weight gain: 0.66^a Kg
  Feed Conversion: 1.62^ab
  Feed consumption: 1.07 kg
[4]; [16]
  Body weight gain: 0.92^ab Kg
  Feed Conversion: 1.67^a
  Feed consumption: 1.54 kg
[4]; [17]
  Body weight gain: 0.30^b Kg
  Feed Conversion: 1.95^b
  Feed consumption: 0.58 kg
[4]; [18]
  Body weight gain: 0.56^ab Kg
  Feed Conversion: 1.93^b
  Feed consumption: 1.08 kg
[4]; DOT 21, 0 to 3 score, challenged, BMD 50.0 g/ton, combination 0.3 lb/ton + 3 × 10^5 cfu/g
  Necrotic enteritis lesion score: 0.50^b
[4]; P<0.05
  Necrotic enteritis lesion score compared to the challenged control birds: lower
[4]; challenged, BMD 50.0 g/ton, combination 0.3 lb/ton + 3 × 10^5 cfu/g
  Necrotic enteritis related mortality, %: 0.0%
[4]; d 0-28
  overall body weight gain compared to the challenged control: increased
[4]; d 14-28, P<0.05
  FCR compared to the challenge control birds: decreased
  body weight gain compared to the challenge control birds: increased
[4]; in vivo
  controlling C. perfringens disease challenge: effective
[5]; [19]
  Body weight gain: 0.34^a Kg
  Feed Conversion: 2.21^b
  Feed consumption: 0.75 kg
[5]; [20]
  Body weight gain: 0.57 kg
  Feed Conversion: 2.08^b
  Feed consumption: 1.19 kg
[5]; [21]
  Body weight gain: 0.15^bc Kg
  Feed Conversion: 2.30^b
  Feed consumption: 0.34 kg
[5]; [22]
  Body weight gain: 0.38^ab Kg
  Feed Conversion: 2.05^b
  Feed consumption: 0.78 kg
[5]; DOT 21, 0 to 3 score, challenged, BMD 50.0 g/ton, combination 0.5 lb/ton + 3 × 10^5 cfu/g
  Necrotic enteritis lesion score: 0.3^c
[5]; P<0.05
  Necrotic enteritis lesion score compared to the challenged control birds: lower
  necrotic enteritis mortality compared to the challenged control group: decreased
[5]; challenged, BMD 50.0 g/ton, combination 0.5 lb/ton + 3 × 10^5 cfu/g
  Necrotic enteritis related mortality, %: 3^b %
[5]; d 0-28, P<0.05
  overall FCR compared to the challenged control birds: decreased
[5]; d 14-28
  body weight gain compared to the challenge control birds: similar
[5]; d 14-28, P<0.05
  FCR compared to the challenge control birds: decreased
[5]; in vivo
  controlling C. perfringens disease challenge: effective
[6]; 28 days of age, P<0.05
  FCR compared to birds fed with no feed additive: decreased
  body weight gain compared to birds fed with no feed additive: increased
[6]; 41 days of age, P<0.05
  Body weight gain compared to the control fed birds: increased
  FCR compared to the no feed additive control group: decreased
[6]; in vivo
  Necrotic enteritis lesion score compared to the no feed additive control fed birds: numerically reduced
  controlling C. perfringens disease challenge: effective
  necrotic enteritis related mortality compared to the no feed additive control fed birds: numerically reduced
